Earlier results in paper PMC6650409, “Modeling the binding of diverse ligands within the Ah receptor ligand binding domain” (Scientific Reports, 2019).
Changes are numbered by the printed parent chain.

How the values were obtained:
M334A mutant AhR = target: T1, M334A mutant AhR (Mus musculus, UniProt P30561, M334A); parameters: method as in PMID 21981577; conditions: M334A mutation; cited from earlier work
T1 construct: made in house; host or cells: in vitro, Promega TNT Quick rabbit reticulocyte lysate
T1 sequence (P30561 10-848 M334A): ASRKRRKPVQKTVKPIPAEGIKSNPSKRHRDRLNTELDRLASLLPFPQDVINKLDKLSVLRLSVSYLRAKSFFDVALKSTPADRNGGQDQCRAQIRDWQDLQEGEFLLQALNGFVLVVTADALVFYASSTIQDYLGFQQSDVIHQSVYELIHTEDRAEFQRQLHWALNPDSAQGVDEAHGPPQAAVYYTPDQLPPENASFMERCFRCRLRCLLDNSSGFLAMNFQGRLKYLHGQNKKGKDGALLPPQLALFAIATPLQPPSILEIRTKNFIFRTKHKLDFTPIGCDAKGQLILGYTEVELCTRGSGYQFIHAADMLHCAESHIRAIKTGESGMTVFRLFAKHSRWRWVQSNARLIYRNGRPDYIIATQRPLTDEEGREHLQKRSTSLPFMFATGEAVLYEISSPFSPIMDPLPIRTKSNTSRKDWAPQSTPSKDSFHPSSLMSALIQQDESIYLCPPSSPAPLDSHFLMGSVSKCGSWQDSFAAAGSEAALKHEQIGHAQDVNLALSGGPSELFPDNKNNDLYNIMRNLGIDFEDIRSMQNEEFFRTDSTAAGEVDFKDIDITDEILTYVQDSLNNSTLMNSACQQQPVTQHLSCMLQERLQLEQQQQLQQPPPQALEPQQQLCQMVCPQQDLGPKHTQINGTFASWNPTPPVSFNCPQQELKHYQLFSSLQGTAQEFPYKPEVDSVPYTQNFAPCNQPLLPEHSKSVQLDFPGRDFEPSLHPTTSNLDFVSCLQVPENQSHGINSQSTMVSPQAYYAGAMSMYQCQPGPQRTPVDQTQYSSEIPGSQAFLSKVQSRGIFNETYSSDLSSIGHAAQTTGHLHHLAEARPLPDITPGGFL

L302A mutant AhR = target: T2, L302A mutant AhR (Mus musculus, UniProt P30561, L302A); parameters: method as in PMID 21981577; conditions: L302A mutation; cited from earlier work
T2 construct: made in house; host or cells: in vitro transcription/translation (rabbit reticulocyte lysate)
T2 sequence (P30561 10-848 L302A): T1 sequence (P30561 10-848 M334A) with L293A, A325M

L309A mutant AhR = target: T3, L309A mutant AhR (Mus musculus, UniProt P30561, L309A); parameters: method as in PMID 21981577; conditions: L309A mutation; cited from earlier work
T3 construct: made in house; host or cells: in vitro transcription/translation (rabbit reticulocyte lysate)

[1] = tested on: zebrafish AhR1a (zfAhR1a); conditions: cited from earlier work

T3 sequence (P30561 10-848 L309A): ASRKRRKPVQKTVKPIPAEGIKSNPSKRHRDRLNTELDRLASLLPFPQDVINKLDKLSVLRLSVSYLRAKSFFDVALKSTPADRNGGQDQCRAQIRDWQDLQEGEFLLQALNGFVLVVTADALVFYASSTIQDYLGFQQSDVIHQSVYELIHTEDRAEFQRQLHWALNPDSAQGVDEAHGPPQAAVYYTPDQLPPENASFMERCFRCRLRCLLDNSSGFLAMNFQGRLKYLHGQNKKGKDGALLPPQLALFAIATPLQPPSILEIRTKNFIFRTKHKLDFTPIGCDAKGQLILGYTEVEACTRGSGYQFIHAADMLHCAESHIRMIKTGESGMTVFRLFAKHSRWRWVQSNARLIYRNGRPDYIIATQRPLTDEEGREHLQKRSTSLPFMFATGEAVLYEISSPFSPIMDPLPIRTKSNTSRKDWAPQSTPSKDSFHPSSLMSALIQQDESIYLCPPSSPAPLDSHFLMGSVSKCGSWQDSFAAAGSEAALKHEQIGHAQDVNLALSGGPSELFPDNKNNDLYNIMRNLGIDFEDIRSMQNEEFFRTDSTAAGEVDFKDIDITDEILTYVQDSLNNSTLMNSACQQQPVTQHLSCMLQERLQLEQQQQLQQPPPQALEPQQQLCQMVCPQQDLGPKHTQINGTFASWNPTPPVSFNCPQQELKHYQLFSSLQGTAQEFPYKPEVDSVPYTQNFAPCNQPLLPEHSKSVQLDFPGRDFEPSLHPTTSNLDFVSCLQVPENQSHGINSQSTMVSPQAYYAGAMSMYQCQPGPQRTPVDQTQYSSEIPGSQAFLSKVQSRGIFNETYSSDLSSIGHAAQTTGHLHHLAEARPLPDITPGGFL
T3 sequence (P53762 whole entry partner): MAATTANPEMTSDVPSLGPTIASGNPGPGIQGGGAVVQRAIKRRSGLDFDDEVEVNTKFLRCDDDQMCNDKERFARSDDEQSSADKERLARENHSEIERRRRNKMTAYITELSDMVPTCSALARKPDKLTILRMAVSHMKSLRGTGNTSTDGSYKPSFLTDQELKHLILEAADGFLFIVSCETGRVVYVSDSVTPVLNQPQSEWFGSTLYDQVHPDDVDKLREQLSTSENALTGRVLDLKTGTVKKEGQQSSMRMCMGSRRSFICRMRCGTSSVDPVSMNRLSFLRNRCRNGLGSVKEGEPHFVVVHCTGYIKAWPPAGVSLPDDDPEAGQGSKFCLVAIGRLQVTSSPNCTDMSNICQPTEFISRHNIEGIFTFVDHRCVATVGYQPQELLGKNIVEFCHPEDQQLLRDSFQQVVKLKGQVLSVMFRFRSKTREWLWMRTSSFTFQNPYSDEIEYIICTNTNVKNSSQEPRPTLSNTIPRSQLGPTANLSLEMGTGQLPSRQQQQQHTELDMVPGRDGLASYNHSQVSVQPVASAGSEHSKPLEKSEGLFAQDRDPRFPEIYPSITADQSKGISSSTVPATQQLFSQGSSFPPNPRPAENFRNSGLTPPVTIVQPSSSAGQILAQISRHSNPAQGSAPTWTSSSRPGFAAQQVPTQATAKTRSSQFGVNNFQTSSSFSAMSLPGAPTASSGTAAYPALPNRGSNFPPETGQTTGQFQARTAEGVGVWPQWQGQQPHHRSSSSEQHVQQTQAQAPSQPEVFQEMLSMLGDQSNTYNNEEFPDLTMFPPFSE

Clc1cc2c(cc1Cl)Oc1cc(Cl)c(Cl)cc1O2 [TCDD, 2,3,7,8-tetrachlorodibenzo-p-dioxin]
TCDD binding activity (M334A mutant AhR): only partially affected | TCDD binding activity (L302A mutant AhR): dramatically reduced | TCDD binding activity (L309A mutant AhR): dramatically reduced | ligand binding to zfAhR1a [1]: unable to bind
